The source of these data is PubChem BioAssay AID1259408 (Genetic Toxicology Data Bank (GENE-TOX), 2018).

Active and inactive are the calls of the source. How the calls were made is not given here.

The test system of the data set is GENE-TOX genotoxicity assays, various organisms and cells. Put plainly: GENE-TOX mutagenicity studies. Particulars: for call: Assay Type: In vivo carcinogenicity studies.
Where [1] appears, read: Species/Cell Type: Human lymphocytes, Assay Type: Sister-chromatid exchange (SCE) in vitro, Assay Code: SCL+D, Dose Response: With dose response, Evaluation Type: Evaluation B (Post-1980).
[2] abbreviates: Species/Cell Type: Human, Assay Type: Sister-chromatid exchange (SCE) in vitro, Assay Code: SC1+D, Dose Response: With dose response, Evaluation Type: Evaluation B (Post-1980).
[3] abbreviates: Species/Cell Type: Nonhuman, Assay Code: CCG+, Evaluation Type: Evaluation A (Pre-1980).
[4] abbreviates: Species/Cell Type: Saccharomyces cerevisiae, Assay Type: Mitotic recombination or gene conversion, Assay Code: YEC+, Evaluation Type: Evaluation A (Pre-1980).
Setting [5] is: Species/Cell Type: Salmonella typhimurium (one or more of the five standard strains: TA98, TA100, TA1535, TA1537, and TA1538), Assay Type: Histidine reverse gene mutation, Ames assay, Assay Code: SALT, Evaluation Type: Evaluation A (Pre-1980).
[6] abbreviates: Species/Cell Type: Escherichia coli polA (W3119 vs P3478), Assay Type: Rec-assay, DNA effects (bacterial DNA repair), Assay Code: RE1+, Evaluation Type: Evaluation A (Pre-1980).
[7] abbreviates: Species/Cell Type: Saccharomyces cerevisiae, Assay Type: Mitotic recombination or gene conversion, Assay Code: YEH-, Evaluation Type: Evaluation A (Pre-1980).
The mark [8] stands for this setting: Species/Cell Type: Saccharomyces cerevisiae, Assay Type: Mitotic recombination or gene conversion, Assay Code: YEH+, Evaluation Type: Evaluation A (Pre-1980).
[9] abbreviates: Species/Cell Type: Salmonella typhimurium (one or more of the five standard strains: TA98, TA100, TA1535, TA1537, and TA1538), Assay Type: Histidine reverse gene mutation, Ames assay, Assay Code: SAL+, Evaluation Type: Evaluation A (Pre-1980).

As for `O=C(O)CCCc1ccc(N(CCCl)CCCl)cc1`, the mutagenic call (Species/Cell Type: Chinese hamster ovary (CHO) cells, Assay Type: Forward gene mutation at the HPRT locus, Assay Code: CHO+, Evaluation Type: Evaluation B (Post-1980)) is “active; positive”; the mutagenic call (Species/Cell Type: Drosophila melanogaster, Assay Type: Sex-linked recessive lethal gene mutation, Assay Code: SRL+, Evaluation Type: Evaluation A (Pre-1980)) was “active; positive”; the mutagenic call (Species/Cell Type: Human lymphocytes, Assay Type: Sister-chromatid exchange (SCE) in vitro, Assay Code: SCL+D, Dose Response: With dose response, Evaluation Type: Evaluation A (Pre-1980)) was “active; positive”; the mutagenic call under setting [1] was “active; positive”; the mutagenic call (Species/Cell Type: Human lymphocytes, Assay Type: Sister-chromatid exchange (SCE) in vivo, Assay Code: SCY+, Evaluation Type: Evaluation B (Post-1980)) is “active; positive”; the mutagenic call (Species/Cell Type: Human, Assay Type: Sister-chromatid exchange (SCE) in vitro, Assay Code: SC1+D, Dose Response: With dose response, Evaluation Type: Evaluation A (Pre-1980)) is “active; positive”. The mutagenic call by setting is: under setting [2], “active; positive”; (Species/Cell Type: Human, Sex: Male, Assay Type: Sperm morphology, Assay Code: SPH+, Evaluation Type: Evaluation A (Pre-1980)) “active; positive”; (Species/Cell Type: Mammalian polychromatic erythrocytes, Assay Type: Micronucleus test, chromosome aberrations, Assay Code: MNT+, Evaluation Type: Evaluation B (Post-1980)) “active; positive”; (Species/Cell Type: Nonhuman, Assay Type: Sister-chromatid exchange (SCE) in vitro, Assay Code: SC2+, Evaluation Type: Evaluation B (Post-1980)) “active; positive”; under setting [4], “active; positive”; (Species/Cell Type: Saccharomyces cerevisiae, Assay Type: Reverse gene mutation, Assay Code: YER+, Evaluation Type: Evaluation A (Pre-1980)) “active; positive”. Besides, the call under setting [3] was “active; positive”.
On to `CN(C)CCc1c[nH]c2cccc(OP(=O)(O)O)c12`, for which the mutagenic call (Species/Cell Type: Mammalian polychromatic erythrocytes, Assay Type: Micronucleus test, chromosome aberrations, Assay Code: MNTT, Evaluation Type: Evaluation A (Pre-1980)) was “no conclusion”.
For the compound `CCCOC(=O)c1cc(O)c(O)c(O)c1`, the mutagenic call (Species/Cell Type: Human, Assay Type: Sister-chromatid exchange (SCE) in vitro, Assay Code: SC1T, Evaluation Type: Evaluation B (Post-1980)) is “no conclusion”.
Take `CN(C)c1ccc(N=Nc2ccccc2C(=O)O)cc1`: the mutagenic call is “active; positive” (Species/Cell Type: Bacillus subtilis (H17 vs M45), Assay Type: Rec-assay, spot test, DNA effects (bacterial DNA repair), Assay Code: REW+, Evaluation Type: Evaluation A (Pre-1980)) and “no conclusion” under setting [5].
Regarding `CN(C)CCCN1c2ccccc2Sc2ccc(Cl)cc21`, the mutagenic call (Species/Cell Type: Chinese hamster lung (V79) cells, Assay Type: Forward gene mutation at the HPRT or ouabain locus, Assay Code: V79-, Evaluation Type: Evaluation A (Pre-1980)) is “inactive; negative”; the mutagenic call under setting [1] was “active; positive”; the mutagenic call under setting [2] is “active; positive”; the mutagenic call (Species/Cell Type: Nonhuman, Assay Type: Sister-chromatid exchange (SCE) in vitro, Assay Code: SC2+D, Dose Response: With dose response, Evaluation Type: Evaluation A (Pre-1980)) is “active; positive”; the mutagenic call (Species/Cell Type: Nonhuman, Assay Type: Sister-chromatid exchange (SCE) in vivo, Assay Code: SC3T, Evaluation Type: Evaluation B (Post-1980)) is on record as “no conclusion”. Moreover, the call (Species/Cell Type: Nonhuman, Assay Code: CCGT, Evaluation Type: Evaluation A (Pre-1980)) is given as “no conclusion”.
Consider `Cc1ccc([N+](=O)[O-])o1`, for which the mutagenic call is “active; positive” (Species/Cell Type: Bacillus subtilis (H17 vs M45T), Assay Type: Rec-assay, spot test, DNA effects (bacterial DNA repair), Assay Code: REX+, Evaluation Type: Evaluation A (Pre-1980)) and “active; positive” (Species/Cell Type: Syrian hamster embryo (SHE) cells, Assay Type: Cell transformation, clonal assay, Assay Code: CTC+, Evaluation Type: Evaluation A (Pre-1980)).
For the compound `N=C1C=CC(=C(c2ccc(N)cc2)c2ccc(N)cc2)C=C1`, the mutagenic call is “active; positive” under setting [6]; “active; positive” (Species/Cell Type: Fischer rat embryo (RLV/1706) cells, Assay Type: Cell transformation, viral enhanced, Assay Code: CTR+, Evaluation Type: Evaluation A (Pre-1980)); “active; positive” (Species/Cell Type: Mouse (BALB/c-3T3) cells, Assay Type: Cell transformation, Assay Code: CTB+D, Dose Response: With dose response, Evaluation Type: Evaluation A (Pre-1980)); “inactive; negative” under setting [7]; “inactive; negative” (Species/Cell Type: Salmonella typhimurium (one or more of the five standard strains: TA98, TA100, TA1535, TA1537, and TA1538), Assay Type: Histidine reverse gene mutation, Ames assay, Assay Code: SAL-, Evaluation Type: Evaluation A (Pre-1980)); “inactive; negative” (Species/Cell Type: Salmonella typhimurium, Assay Type: Forward and reverse gene mutation, host-mediated assay, Assay Code: HMA-, Evaluation Type: Evaluation A (Pre-1980)). Moreover, for the setting “Species/Cell Type: Syrian hamster embryo (SHE) cells, Assay Type: Cell transformation, clonal assay, Assay Code: CTCT, Evaluation Type: Evaluation A (Pre-1980)”, the mutagenic call is on record as “no conclusion”. Under “Species/Cell Type: Nonhuman, Assay Code: CCG+L, Evaluation Type: Evaluation A (Pre-1980)”, the call is “active; positive”.
`O=C1NCCN1c1ncc([N+](=O)[O-])s1`: the mutagenic call was “active; positive” (Species/Cell Type: Escherichia coli WP2, Assay Type: Tryptophan reverse gene mutation, Assay Code: WP2+D, Dose Response: With dose response, Evaluation Type: Evaluation A (Pre-1980)); “active; positive” (Species/Cell Type: Escherichia coli WP2 UVRA, Assay Type: Tryptophan reverse gene mutation, Assay Code: WPU+D, Dose Response: With dose response, Evaluation Type: Evaluation A (Pre-1980)); “inactive; negative” (Species/Cell Type: Human, Sex: Male, Assay Type: Sperm morphology, Assay Code: SPH-, Evaluation Type: Evaluation A (Pre-1980)); “active; positive” (Species/Cell Type: Neurospora crassa, Assay Type: Forward gene mutation, Assay Code: NEF+, Evaluation Type: Evaluation A (Pre-1980)); “active; positive” under setting [8]; “active; positive” under setting [9]. For the same compound, the call under setting [3] was “active; positive”.
Consider `O=S1(=O)OC2(c3ccccc31)c1cc(Br)c(O)c(Br)c1Oc1c2cc(Br)c(O)c1Br`, for which, under setting [9], the mutagenic call was “active; positive”.
For the compound `Nc1ccc(S)cc1`, the mutagenic call (Species/Cell Type: Mouse, Sex: Male, Assay Type: Sperm morphology, Assay Code: SPI-, Evaluation Type: Evaluation A (Pre-1980)) is “inactive; negative”.
As for `CCN(CC)c1ccc2nc3ccc(N=Nc4ccc(N(C)C)cc4)cc3[n+](-c3ccccc3)c2c1`, the mutagenic call (Species/Cell Type: Bacillus subtilis (H17 vs M45T), Assay Type: Rec-assay, spot test, DNA effects (bacterial DNA repair), Assay Code: REXT, Evaluation Type: Evaluation A (Pre-1980)) is “no conclusion”.
`O=C(Nc1cc(Cl)cc(Cl)c1O)c1c(O)c(Cl)cc(Cl)c1Cl`: the mutagenic call (Species/Cell Type: Mammalian polychromatic erythrocytes, Assay Type: Micronucleus test, chromosome aberrations, Assay Code: MNTT, Evaluation Type: Evaluation B (Post-1980)) was “no conclusion”.
Regarding `CCN(CC)C(=S)S`, the call (Species/Cell Type: Nonhuman, Assay Code: CCG-, Evaluation Type: Evaluation A (Pre-1980)) is “inactive; negative”. For the same compound, for the setting “Species/Cell Type: Vicia faba, Assay Type: Chromosome aberrations, Assay Code: VIC+, Evaluation Type: Evaluation A (Pre-1980)”, the mutagenic call is “active; positive”.
With `Cc1ccc2ccc3c4ccccc4ccc3c2c1`, the mutagenic call (Species/Cell Type: Salmonella typhimurium (one or more of the five standard strains: TA98, TA100, TA1535, TA1537, and TA1538), Assay Type: Histidine reverse gene mutation, Ames assay, Assay Code: SAL+*, Activation: With metabolic activation, Evaluation Type: Evaluation A (Pre-1980)) is “active; positive”.
Regarding `NC(=O)N(CC(=O)O)N=O`, under setting [5], the mutagenic call was “no conclusion”.
On to `CCNc1nc(Cl)nc(NCC)n1`, for which the mutagenic call is, setting by setting: (Species/Cell Type: Drosophila melanogaster, Assay Type: Aneuploidy, partial sex chromosome loss, chromosome aberrations, Assay Code: DAPT, Evaluation Type: Evaluation A (Pre-1980)) “no conclusion”; (Species/Cell Type: Drosophila melanogaster, Assay Type: Aneuploidy, sex chromosome gain, chromosome aberrations, Assay Code: DAGT, Evaluation Type: Evaluation A (Pre-1980)) “no conclusion”; (Species/Cell Type: Drosophila melanogaster, Assay Type: Aneuploidy, whole sex chromosome loss, chromosome aberrations, Assay Code: DAC-M, Evaluation Type: Evaluation A (Pre-1980)) “inactive; negative”; (Species/Cell Type: Human diploid fibroblasts, Assay Type: Unscheduled DNA synthesis (UDS) in vitro, DNA effects, Assay Code: UDH-, Evaluation Type: Evaluation A (Pre-1980)) “inactive; negative”; (Species/Cell Type: Saccharomyces cerevisiae, Assay Type: Mitotic recombination or gene conversion, Assay Code: YEC-, Evaluation Type: Evaluation A (Pre-1980)) “inactive; negative”; under setting [7], “inactive; negative”. The mutagenic call runs as follows: under setting [5], “no conclusion”; (Species/Cell Type: Syrian hamster embryo (SA7/SHE) cells, Assay Type: Cell transformation, viral enhanced, Assay Code: CT7+, Evaluation Type: Evaluation A (Pre-1980)) “active; positive”.
With `C[n+]1c2ccccc2cc2cccc(N)c21`, the mutagenic call (Species/Cell Type: Saccharomyces cerevisiae, Assay Type: Forward gene mutation, Assay Code: YEF+, Evaluation Type: Evaluation A (Pre-1980)) was “active; positive”.
As to `C=CCCl`, the mutagenic call by setting is: under setting [6], “active; positive”; under setting [4], “active; positive”; under setting [8], “active; positive”.
